In data set [1] the test system is Acinetobacter baumannii. Nature of the data set: Antimicrobial activity against Acinetobacter baumannii ATCC 17978 assessed as microbial growth inhibition under iron-deficient condition. It counts as functional.
For data set [2], the system named is Staphylococcus aureus. Nature of the data set: Antimicrobial activity against methicillin-resistant Staphylococcus aureus ATCC 33591 assessed as microbial growth inhibition. In kind it is functional.
The subject of data set [3] is Enterococcus faecium. Kind of data set: Antimicrobial activity against vancomycin-resistant Enterococcus faecium ATCC 51559 assessed as microbial growth inhibition. In kind it is functional.
The subject of data set [4] is Staphylococcus aureus. Nature of the data set: Antimicrobial activity against vancomycin intermediate Staphylococcus aureus assessed as microbial growth inhibition. It counts as functional.
Data set [5] deals with Enterococcus faecalis. Kind of data set: Antimicrobial activity against vancomycin-resistant Enterococcus faecalis ATCC 51575 assessed as microbial growth inhibition. It counts as functional.
Data set [6] concerns Pseudomonas aeruginosa. Nature of the data set: Antibacterial activity against Pseudomonas aeruginosa Pa4 assessed as microbial growth inhibition incubated for 20 hrs in iron depleted media by CLSI protocol based broth microdilution method. In kind it is functional. A general note: Broth dilution looks for growth in wells or tubes with falling amounts of substance.
The test system of data set [7] is Pseudomonas aeruginosa. Nature of the data set: Antibacterial activity against Wild type Pseudomonas aeruginosa KW799 assessed as microbial growth inhibition incubated for 20 hrs in iron depleted media by CLSI protocol based broth microdilution method. It counts as functional.
Data set [8] relates to Pseudomonas aeruginosa. Kind of data set: Antibacterial activity against Pseudomonas aeruginosa PAO1 assessed as microbial growth inhibition incubated for 20 hrs in iron depleted media by CLSI protocol based broth microdilution method. It counts as functional.
Data set [9] deals with Pseudomonas aeruginosa. Nature of the data set: Antibacterial activity against Pseudomonas aeruginosa KW799/61 assessed as microbial growth inhibition incubated for 20 hrs in iron depleted media by CLSI protocol based broth microdilution method. In kind it is functional.
Data set [10] has as its system Salmonella enteritidis. Nature of the data set: Antimicrobial activity against Salmonella enterica subsp. enterica serovar Enteritidis assessed as increase in microbial growth inhibition. In kind it is functional.
Data set [11] relates to Salmonella typhimurium. Nature of the data set: Antimicrobial activity against Salmonella enterica subsp. enterica serovar Typhimurium assessed as increase in microbial growth inhibition. It counts as functional.
Data set [12] concerns Yersinia enterocolitica. Kind of data set: Antimicrobial activity against Yersinia enterocolitica assessed as microbial growth inhibition. It counts as functional.
Data set [13] deals with Streptococcus pneumoniae. Kind of data set: Antimicrobial activity against Streptococcus pneumoniae assessed as microbial growth inhibition. In kind it is functional.
Data set [14] can be described thus: Cytotoxicity against human L02 assessed as lethal dose. The settings on record: L02 cells, read-out: LD50 (the source's name). In kind it is toxicity, cell-based.
Data set [15] relates to Acinetobacter baumannii. Nature of the data set: Antimicrobial activity against Acinetobacter baumannii ATCC 17978 pNT255 assessed as microbial growth inhibition. It counts as functional.
Data set [16] relates to Acinetobacter baumannii. Kind of data set: Antimicrobial activity against Acinetobacter baumannii ATCC 17978 pNT165 producing carbapenamase assessed as microbial growth inhibition. In kind it is functional.
Data set [17] concerns Acinetobacter baumannii. Kind of data set: Antimicrobial activity against Acinetobacter baumannii ARC 5079 assessed as microbial growth inhibition. In kind it is functional.
Data set [18] concerns Acinetobacter baumannii. Nature of the data set: Antimicrobial activity against Acinetobacter baumannii ATCC 17961 assessed as microbial growth inhibition. In kind it is functional.
The subject of data set [19] is Acinetobacter baumannii. Nature of the data set: Antimicrobial activity against Acinetobacter baumannii ARC 3486 assessed as microbial growth inhibition. It counts as functional.
The subject of data set [20] is Acinetobacter baumannii. Kind of data set: Antimicrobial activity against Acinetobacter baumannii ATCC BAA 1797 assessed as microbial growth inhibition. It counts as functional.
For data set [21], the system named is Acinetobacter baumannii. Nature of the data set: Antimicrobial activity against Acinetobacter baumannii ARC 5081 assessed as microbial growth inhibition. In kind it is functional.
The test system of data set [22] is Acinetobacter baumannii. Kind of data set: Antimicrobial activity against Acinetobacter baumannii ATCC BAA 1800 assessed as microbial growth inhibition. In kind it is functional.
Data set [23] deals with Acinetobacter baumannii. Kind of data set: Antimicrobial activity against Acinetobacter baumannii ATCC 17978 pNT320 producing cephalosporinase assessed as microbial growth inhibition. In kind it is functional.
The test system of data set [24] is Acinetobacter baumannii. Nature of the data set: Antimicrobial activity against Acinetobacter baumannii ATCC BAA 1793 assessed as microbial growth inhibition. It counts as functional.
Data set [25] has as its system Acinetobacter baumannii. Nature of the data set: Antimicrobial activity against Acinetobacter baumannii ATCC 17978 pNT221 assessed as microbial growth inhibition. In kind it is functional.
Data set [26] relates to Acinetobacter baumannii. Nature of the data set: Antimicrobial activity against Acinetobacter baumannii ATCC 17978 assessed as microbial growth inhibition. It counts as functional.
Data set [27] concerns Acinetobacter baumannii. Kind of data set: Antimicrobial activity against Acinetobacter baumannii ARC 3484 assessed as microbial growth inhibition. In kind it is functional.
Data set [28] deals with Acinetobacter baumannii. Kind of data set: Antimicrobial activity against Acinetobacter baumannii ATCC BAA 1710 assessed as microbial growth inhibition. It counts as functional.

Consider 9 compounds from ChEMBL document CHEMBL5338723, “Emerging Target-Directed Approaches for the Treatment and Diagnosis of Microbial Infections” (J Med Chem, 2023).

By MIC is commonly meant the least concentration at which growth counts as inhibited.

Values after ≈ are worked out from the molar mass of the structure shown.

`CC(=O)N(O)CCCCNC(=O)[C@H](COC(=O)c1cccc(O)c1O)NC(=O)[C@H]1N=C(c2cc(CCCCC(=O)N[C@@H](C(=O)N[C@@H]3C(=O)N4C(C(=O)O)=C(Cl)CS[C@H]34)c3ccccc3)cc(O)c2O)O[C@@H]1C`: the MIC in data set [1] was determined as 0.5 µg/mL (≈ 0.481 µM).

`CN[C@H](CC(C)C)C(=O)N[C@H]1C(=O)N[C@@H](CC(N)=O)C(=O)N[C@H]2C(=O)N[C@H]3C(=O)N[C@H](C(=O)N[C@H](C(=O)NCCCNC(=O)[C@H](O)[C@@H](O)[C@H](O[C@H]4O[C@@H](CO)[C@@H](O)[C@@H](O)[C@@H]4O)[C@H](O)CO)c4cc(O)cc(O)c4-c4cc3ccc4O)[C@H](O)c3ccc(c(Cl)c3)Oc3cc2cc(c3O[C@@H]2O[C@H](CO)[C@@H](O)[C@H](O)[C@H]2O[C@H]2C[C@](C)(N)[C@H](O)[C@H](C)O2)Oc2ccc(cc2Cl)[C@H]1O`: the MIC in data set [2] was determined as 0.4 µM (≈ 0.738 µg/mL); in data set [3], 36 µM (≈ 66.4 µg/mL); in [4], 0.3 µM (≈ 0.554 µg/mL); in data set [5], 30 µM (≈ 55.4 µg/mL).

Turning to `C[C@H]1OC(c2cccc(O)c2O)=N[C@@H]1C(=O)N[C@@H](COC(=O)c1cccc(O)c1O)C(=O)NCCCCN(O)C(=O)N[C@@H](C(=O)N[C@@H]1C(=O)N2C(C(=O)O)=C(Cl)CS[C@H]12)c1ccccc1`, the MIC in data set [1] came to 0.5 µg/mL (≈ 0.532 µM).

Take `CN[C@H](CC(C)C)C(=O)N[C@H]1C(=O)N[C@@H](CC(N)=O)C(=O)N[C@H]2C(=O)N[C@H]3C(=O)N[C@H](C(=O)N[C@H](C(=O)NCCCNC(=O)[C@H](O)[C@@H](O)[C@H](O)[C@H](O)CO)c4cc(O)cc(O)c4-c4cc3ccc4O)[C@H](O)c3ccc(c(Cl)c3)Oc3cc2cc(c3O[C@@H]2O[C@H](CO)[C@@H](O)[C@H](O)[C@H]2O[C@H]2C[C@](C)(N)[C@H](O)[C@H](C)O2)Oc2ccc(cc2Cl)[C@H]1O`: the MIC is 0.6 µM (≈ 1.01 µg/mL) in data set [2], 54 µM (≈ 90.9 µg/mL) in data set [3], 0.9 µM (≈ 1.52 µg/mL) in data set [4] and 60 µM (≈ 101 µg/mL) in data set [5].

In the case of `CC(=O)Oc1cccc(C(=O)NCCCC(CCCNC(=O)c2cccc(OC(C)=O)c2OC(C)=O)(CCCNC(=O)c2cccc(OC(C)=O)c2OC(C)=O)NC(=O)CCC(=O)NC(C(=O)NC2C(=O)N3C2SC(C)(C)[C@@H]3C(=O)O)c2ccccc2)c1OC(C)=O` (stereo not given in full), the MIC in data set [6], in data set [7], in [8] and in data set [9] was 0.05 µM (≈ 0.0647 µg/mL) throughout.

`CC1=C(C(=O)O)N2C(=O)[C@@H](NC(=O)[C@H](NC(=O)CCCc3cn(CCOCCOCCOCCNC(=O)c4cc(O)c(O)c(C(=O)N[C@H]5COC(=O)[C@@H](NC(=O)c6cccc(O)c6O)COC(=O)[C@@H](NC(=O)c6cccc(O)c6O)COC5=O)c4)nn3)c3ccccc3)[C@H]2SC1`: the MIC in data set [10] and in data set [11] was 0.01 µM each time.

As to `CC1(C)S[C@@H]2[C@H](NC(=O)[C@H](NC(=O)CCCc3cn(CCOCCOCCOCCNC(=O)c4cc(O)c(O)c(C(=O)N[C@H]5COC(=O)[C@@H](NC(=O)c6cc([C@@H]7O[C@H](CO)[C@@H](O)[C@H](O)[C@H]7O)cc(O)c6O)COC(=O)[C@@H](NC(=O)c6cc([C@@H]7O[C@H](CO)[C@@H](O)[C@H](O)[C@H]7O)cc(O)c6O)COC5=O)c4)nn3)c3ccccc3)C(=O)N2[C@H]1C(=O)O`, the MIC in [10] and in data set [11] was 0.01 µM throughout.

On to `CN(Cc1cnc2nc(N)nc(N)c2n1)c1ccc(C(=O)N[C@@H](CCC(=O)O)C(=O)O)cc1` [METHOTREXATE], for which the MIC in data set [12] was > 35.2 µM; in [13] it was ≥ 2.2 µM. Moreover, in data set [14], the CC50 was found to be 8 nM.

Take `CCCCCCCCCC(=O)N[C@@H](Cc1c[nH]c2ccccc12)C(=O)N[C@H](CC(N)=O)C(=O)N[C@@H](CC(=O)O)C(=O)N[C@@H]1C(=O)NCC(=O)N[C@@H](CCCNC(=O)CCCC(=O)N(O)CCCCCNC(=O)CCCN(CCCCNC(=O)c2cccc(O)c2O)CCCNC(=O)c2cccc(O)c2O)C(=O)N[C@@H](CC(=O)O)C(=O)N[C@H](C)C(=O)N[C@@H](CC(=O)O)C(=O)NCC(=O)N[C@H](CO)C(=O)N[C@@H](C(C)CC(=O)O)C(=O)N[C@@H](CC(=O)c2ccccc2N)C(=O)O[C@@H]1C` (stereo not given in full): the MIC in data set [15], in data set [16], in [17], in [18], in data set [19] and in data set [20] was 0.2 µM (≈ 0.464 µg/mL) in each case. Further, the MIC in data set [21], in data set [22], in [23], in data set [24], in [25] and in data set [26] was 0.2 µM (≈ 0.464 µg/mL) each time. Moreover, the MIC in data set [27] and in data set [28] was 0.2 µM (≈ 0.464 µg/mL) throughout.
